Measured values as given in patent publication US11738082B2, “High concentration protein formulations with reduced viscosity” (Bhami's Research Laboratory, Pvt. Ltd., priority 2017, dated 2023).
Where a name gives a salt, the structure may show the parent alone. Values belong to the compound of their own block, whether it stands above or below them. Residues, ends and D or L forms follow the SMILES beside them.

System: Human Gamma Globulin (HGG), GLOBUCEL®
Assay: Viscosity of aqueous solutions of Human Gamma Globulin (Cambridge VISCOlab5000 or DV2T cone and plate viscometer)
[1] = HGG […], excipient 5%, 25 mM citrate buffer pH 6.0
[2] = HGG 220 mg/mL, excipient 10 mg/mL, citrate buffer pH 6.0, 25° C.
[3] = HGG 220 mg/mL, excipient 10 mg/mL, histidine buffer pH 6.0, 25° C.
[4] = HGG 220 mg/mL, excipient 10 mg/mL, phosphate buffer pH 6.0, 25° C.

Description: Commercially obtained human gamma globulin (HGG), GLOBUCEL® (50 mg/mL) containing pharmaceutical excipients (Maltose) was dialyzed against water for 24 hr at 4° C. with three changes. To the aqueous solution of HGG, either histidine or phosphate or citrate buffer was added from the stock concentration of 1000 mM for histidine buffer or 1000 mM for citrate buffer or 1000 mM for phosphate buffer, pH 6.0 to get a final concentration of 25 mM each. The HGG solutions in various buffers were concentrated to a final volume of less than 150 μL using Vivaspin centrifugal concentrators (Sartorius). The collected protein sample was stored at 4° C. […] The protein concentrations were experimentally determined using the extinction coefficient of 1.4
[formula] at 280 nm. The viscosities of the solution were measured either using a Cambridge Viscometer, VISCOlab5000 using 70 μL of sample at 25° C. or using a DV2T cone and plate viscometer using 1.5 mL of sample at 25° C. at extrapolated zero shear rate.
Commercially obtained human gamma globulin (HGG), GLOBUCEL® (50 mg/mL) containing pharmaceutical excipients (Maltose) was dialyzed against water for 24 hr at 4° C. with three changes. To the aqueous solution of HGG, either citrate-phosphate buffer pH 5.0 or citrate-phosphate buffer pH 6.0 or citrate-phosphate buffer pH 7.0 was added from the stock concentration of 1000 mM for citrate buffer at pH 5.0 or pH 6.0 or pH 7.0 to get a final concentration of 25 mM each. The HGG solutions in various pH buffers were concentrated to a final volume of less than 150 μL using Vivaspin centrifugal concentrators (Sartorius). The collected protein sample was stored at 4° C. […] The protein concentrations were experimentally determined using the extinction coefficient of 1.4
Commercially obtained human gamma globulin (HGG), GLOBUCEL® (50 mg/mL) containing pharmaceutical excipients (Maltose) was dialyzed against water for 24 hr at 4° C. with three changes. To the aqueous solution of HGG, phosphate/citrate/histidine Buffer was added from the stock concentration of 1000 mM phosphate/citrate/histidine buffer, pH 6.0 to get a final concentration of 25 mM. To the buffered HGG different amino acid or its derivative was added individually and mixed until complete dissolution. The excipient containing HGG was concentrated to a final volume of less than 150 μL using Vivaspin centrifugal concentrators (Sartorius). The collected protein sample was stored at 4° C. […] The protein concentrations were experimentally determined using the extinction coefficient of 1.4
Commercially obtained human gamma globulin (HGG), GLOBUCEL® (50 mg/mL) containing pharmaceutical excipients (Maltose) was dialyzed against water for 24 hr at 4° C. with three changes. To the aqueous solution of HGG, phosphate/citrate/histidine Buffer was added from the stock concentration of 1000 mM phosphate/citrate/histidine buffer, pH 6.0 to get a final concentration of 25 mM. To the buffered HGG, different nucleosides or nucleotides or its derivative was added individually and mixed until complete dissolution. The excipient containing HGG was concentrated to a final volume of less than 150 μL using Vivaspin centrifugal concentrators (Sartorius). The collected protein sample was stored at 4° C.

Viscosity (cP) @ 25° C. (HGG 120 mg/mL, excipient 10 mg/mL (105 mM), 25 mM phosphate buffer pH 6.0): 87 cP
Structure (SMILES): Nc1ncccn1 [2-Aminopyrimidine]

Viscosity (cP) @ 25° C. (HGG 283 mg/mL, excipient 2.5 mg/mL (14 mM), 25 mM histidine buffer pH 6.0): 43 cP
Structure (SMILES): CC(=O)Oc1ccccc1C(=O)O [Acetyl salicylic acid, reference compound]

Viscosity (cP) @ 25° C. (HGG 222 mg/mL, excipient 10 mg/mL (112 mM), 25 mM phosphate buffer pH 6.0): 112 cP
Structure (SMILES): C[C@H](N)C(=O)O [Alanine]

Structure (SMILES): Cl.N [Ammonium chloride]
Viscosity (cP) @ 25° C. (HGG 182 mg/mL, excipient 5.35 mg/mL (100 mM), 25 mM phosphate buffer pH 6.0): 53 cP
Viscosity (cP) @ 25° C. (HGG 205 mg/mL, excipient 40 mg/mL (747 mM), 25 mM phosphate buffer pH 6.0): 21 cP

Viscosity (cP) @ 25° C. (HGG 186 mg/mL, excipient 10 mg/mL (67 mM), 25 mM citrate buffer pH 6.0): 65 cP
Structure (SMILES): O=C[C@@H](O)[C@H](O)[C@H](O)CO [Arabinose]

Structure (SMILES): N=C(N)NCCC[C@H](N)C(=O)O [Arginine]
Viscosity (cP) @ 25° C. (HGG 205 mg/mL, excipient 10 mg/mL (58 mM), 25 mM phosphate buffer pH 6.0): 85 cP
Viscosity (cP) @ 25° C. (HGG 220 mg/mL, excipient 10 mg/mL (58 mM), 25 mM phosphate buffer pH 6.0): 197 cP
Viscosity (cP) @ 25° C. (HGG 247 mg/mL, excipient 10 mg/mL (58 mM), 25 mM citrate buffer pH 6.0): 87 cP

Viscosity (cP) @ 25° C. (HGG 140 mg/mL, excipient 10 mg/mL (34 mM), 25 mM citrate buffer pH 6.0): 51 cP
Viscosity (cP) @ 25° C. (HGG 218 mg/mL, excipient 10 mg/mL (34 mM), 25 mM phosphate buffer pH 6.0): 143 cP
Structure (SMILES): COC(=O)[C@H](Cc1ccccc1)NC(=O)[C@@H](N)CC(=O)O [Aspartame] (H-Asp-Phe-OMe)

Viscosity (cP) @ 25° C. (HGG 218 mg/mL, excipient 10 mg/mL (41 mM), 25 mM phosphate buffer pH 6.0): 203 cP
Structure (SMILES): Nc1ccn([C@@H]2O[C@H](CO)[C@@H](O)[C@H]2O)c(=O)n1 [Cytidine]

Viscosity (cP) @ 25° C. (HGG 182 mg/mL, excipient 10 mg/mL (56 mM), 25 mM citrate buffer pH 6.0): 45 cP
Viscosity (cP) @ 25° C. (HGG 240 mg/mL, excipient 10 mg/mL (56 mM), 25 mM phosphate buffer pH 6.0): 176 cP
Structure (SMILES): OC[C@@H](O)[C@@H](O)[C@H](O)[C@@H](O)CO [D-sorbitol]

Viscosity (cP) @ 25° C. (HGG 204 mg/mL, excipient 5%, 25 mM phosphate buffer pH 6.0): 121 cP
Viscosity (cP) @ 25° C. [1]: 28 cP
Structure (SMILES): C[S+](C)[O-] [DMSO]

Viscosity (cP) @ 25° C. (HGG 182 mg/mL, excipient 5%, 25 mM phosphate buffer pH 6.0): 53 cP
Viscosity (cP) @ 25° C. [1]: 5 cP
Structure (SMILES): CCO [Ethanol]

Structure (SMILES): O=C(CO)[C@@H](O)[C@H](O)[C@H](O)CO [Fructose]
Viscosity (cP) @ 25° C. (HGG […], excipient 10 mg/mL (56 mM), 25 mM citrate buffer pH 6.0): 69 cP

Viscosity (cP) @ 25° C. (HGG 206 mg/mL, excipient 10 mg/mL ([…]), 25 mM phosphate buffer pH 6.0): 63 cP
Viscosity (cP) @ 25° C. (HGG 208 mg/mL, excipient 10 mg/mL ([…]), 25 mM citrate buffer pH 6.0): 73 cP
Viscosity (cP) @ 25° C. (HGG 228 mg/mL, excipient 10 mg/mL ([…]), 25 mM phosphate buffer pH 6.0): 186 cP
Structure (SMILES): NCC(=O)O [Glycine]

Viscosity (cP) @ 25° C. (HGG 180 mg/mL, excipient 10 mg/mL (65 mM), 25 mM phosphate buffer pH 6.0): 31 cP
Structure (SMILES): N[C@@H](Cc1c[nH]cn1)C(=O)O [Histidine]

Structure (SMILES): N=C(N)NCCCC[C@H](N)C(=O)O [Homoarginine]
Viscosity (cP) @ 25° C. (HGG 188 mg/mL, excipient 10 mg/mL (45 mM), 25 mM phosphate buffer pH 6.0): 28 cP

Viscosity (cP) @ 25° C. (HGG 214 mg/mL, excipient 10 mg/mL (57 mM), 25 mM phosphate buffer pH 6.0): 59 cP
Structure (SMILES): O=C1O[C@H]([C@@H](O)CO)C(O)=C1O [L-Ascorbic acid]

Structure (SMILES): NCCCC[C@H](N)C(=O)O [Lysine]
Viscosity (cP) @ 25° C. (HGG 267 mg/mL, excipient 10 mg/mL (55 mM), 25 mM phosphate buffer pH 6.0): 199 cP

Viscosity (cP) @ 25° C. (HGG […], excipient 10 mg/mL (55 mM), 25 mM citrate buffer pH 6.0): 65 cP
Structure (SMILES): OC[C@@H](O)[C@@H](O)[C@H](O)[C@H](O)CO [Mannitol]

Viscosity (cP) @ 25° C. (HGG 228 mg/mL, excipient 10 mg/mL (67 mM), 25 mM phosphate buffer pH 6.0): 170 cP
Structure (SMILES): CSCC[C@H](N)C(=O)O [Methionine]

Structure (SMILES): COC(=O)c1cccnc1 [Methylnicotinate]
Viscosity (cP) @ 25° C. (HGG 216 mg/mL, excipient 10 mg/mL (73 mM), 25 mM phosphate buffer pH 6.0): 84 cP

Viscosity (cP) @ 25° C. (HGG 105 mg/mL, excipient 10 mg/mL (82 mM), 25 mM histidine buffer pH 6.0): 26 cP
Viscosity (cP) @ 25° C. (HGG 191 mg/mL, excipient 10 mg/mL (82 mM), 25 mM phosphate buffer pH 6.0): 21 cP
Viscosity (cP) @ 25° C. (HGG 219 mg/mL, excipient 10 mg/mL (82 mM), 25 mM citrate buffer pH 6.0): 72 cP
Viscosity, cP [2]: 72 cP
Viscosity, cP [3]: 43 cP
Viscosity, cP [4]: 49 cP
Viscosity (cP) @ 25° C. (HGG 224 mg/mL, excipient 10 mg/mL (82 mM), 25 mM histidine buffer pH 6.0): 43 cP
Viscosity (cP) @ 25° C. (HGG 250 mg/mL, excipient 10 mg/mL (82 mM), 25 mM phosphate buffer pH 6.0): 76 cP
Structure (SMILES): NC(=O)c1cccnc1 [Nicotinamide]

Structure (SMILES): O=C(O)c1cccnc1 [Nicotinic acid (acid form)]
Viscosity, cP [2]: 20 cP
Viscosity, cP [3]: 18 cP
Viscosity, cP [4]: 20 cP
Viscosity (cP) @ 25° C. (HGG 231 mg/mL, excipient 10 mg/mL (81 mM), 25 mM histidine buffer pH 6.0): 23 cP
Viscosity (cP) @ 25° C. (HGG 246 mg/mL, excipient 10 mg/mL (81 mM), 25 mM citrate buffer pH 6.0): 48 cP
Viscosity (cP) @ 25° C. (HGG 250 mg/mL, excipient 10 mg/mL (81 mM), 25 mM phosphate buffer pH 6.0): 30 cP
Viscosity, cP (HGG 260 mg/mL, nicotinic acid (acid form) 1 mg/mL, 25 mM histidine buffer pH 6.0, 25° C.): 85 cP
Viscosity, cP (HGG 260 mg/mL, nicotinic acid (acid form) 5 mg/mL, 25 mM histidine buffer pH 6.0, 25° C.): 68 cP
Viscosity, cP (HGG 260 mg/mL, nicotinic acid (acid form) 10 mg/mL, 25 mM histidine buffer pH 6.0, 25° C.): 52 cP
Viscosity, cP (HGG 260 mg/mL, nicotinic acid (acid form) 15 mg/mL, 25 mM histidine buffer pH 6.0, 25° C.): 41 cP
Viscosity, cP (HGG 274 mg/mL, in the presence of nicotinic acid (acid form), 25 mM histidine buffer pH 6.0, 20° C.): 63 cP
Viscosity, cP (HGG 274 mg/mL, in the presence of nicotinic acid (acid form), 25 mM histidine buffer pH 6.0, 25° C.): 41 cP
Viscosity, cP (HGG 274 mg/mL, in the presence of nicotinic acid (acid form), 25 mM histidine buffer pH 6.0, 30° C.): 35 cP
Viscosity (cP) @ 25° C. (HGG 277 mg/mL, excipient 10 mg/mL (81 mM), 25 mM citrate buffer pH 6.0): 123 cP
Viscosity (cP) @ 25° C. (HGG 342 mg/mL, excipient 10 mg/mL (81 mM), 25 mM histidine buffer pH 6.0): 178 cP

Structure (SMILES): O=C([O-])c1cccnc1.[Na+] [Nicotinic acid Sodium Salt]
Viscosity (cP) @ 25° C. (HGG 202 mg/mL, excipient 10 mg/mL (69 mM), 25 mM phosphate buffer pH 6.0): 29 cP
Viscosity (cP) @ 25° C. (HGG 203 mg/mL, excipient 10 mg/mL (69 mM), 25 mM histidine buffer pH 6.0): 21 cP
Viscosity, cP [3]: 81 cP
Viscosity, cP [4]: 95 cP
Viscosity, cP (HGG 225 mg/mL (footnote), excipient 10 mg/mL, citrate buffer pH 6.0, 25° C.): 71^$ cP
Viscosity (cP) @ 25° C. (HGG 225 mg/mL, excipient 10 mg/mL (69 mM), 25 mM phosphate buffer pH 6.0): 95 cP
Viscosity (cP) @ 25° C. (HGG 235 mg/mL, excipient 10 mg/mL (69 mM), 25 mM histidine buffer pH 6.0): 140 cP
Viscosity (cP) @ 25° C. (HGG 236 mg/mL, excipient […] (81 mM), 25 mM histidine buffer pH 6.0): 83 cP
Viscosity (cP) @ 25° C. (HGG […], excipient 10 mg/mL (69 mM), 25 mM citrate buffer pH 6.0): 71 cP

Structure (SMILES): CC(=O)[O-].[K+] [Potassium acetate]
Viscosity (cP) @ 25° C. (HGG 228 mg/mL, excipient 40 mg/mL (408 mM), 25 mM phosphate buffer pH 6.0): 172 cP

Viscosity (cP) @ 25° C. (HGG […], excipient 10 mg/mL (87 mM), 25 mM citrate buffer pH 6.0): 55 cP
Viscosity (cP) @ 25° C. (HGG […], excipient 10 mg/mL (87 mM), 25 mM phosphate buffer pH 6.0): 68 cP
Structure (SMILES): O=C(O)[C@@H]1CCCN1 [Proline]

Viscosity (cP) @ 25° C. (HGG 213 mg/mL, excipient 10 mg/mL (91 mM), 25 mM phosphate buffer pH 6.0): 171 cP
Structure (SMILES): CC(=O)C(=O)[O-].[Na+] [Pyruvate sodium salt]

Viscosity (cP) @ 25° C. (HGG 238 mg/mL, excipient 10 mg/mL (95 mM), 25 mM phosphate buffer pH 6.0): 135 cP
Structure (SMILES): N[C@@H](CO)C(=O)O [Serine]

Structure (SMILES): CC(=O)[O-].[Na+] [Sodium Acetate]
Viscosity (cP) @ 25° C. (HGG 174 mg/mL, excipient […] (100 mM), 25 mM phosphate buffer pH 6.0): 19 cP

Viscosity (cP) @ 25° C. (HGG 192 mg/mL, excipient 20 mg/mL (58 mM), 25 mM citrate buffer pH 6.0): 76 cP
Viscosity (cP) @ 25° C. (HGG 204 mg/mL, excipient 20 mg/mL (58 mM), 25 mM phosphate buffer pH 6.0): 190 cP
Structure (SMILES): OC[C@H]1O[C@@](CO)(O[C@H]2O[C@H](CO)[C@@H](O)[C@H](O)[C@H]2O)[C@@H](O)[C@@H]1O [Sucrose]

Viscosity (cP) @ 25° C. (HGG 179 mg/mL, excipient 10 mg/mL (30 mM), 25 mM phosphate buffer pH 6.0): 24 cP
Viscosity (cP) @ 25° C. (HGG 200 mg/mL, excipient 10 mg/mL (30 mM), 25 mM histidine buffer pH 6.0): 29 cP
Viscosity (cP) @ 25° C. (HGG 200 mg/mL, excipient 27.3 mg/mL (81 mM), 25 mM phosphate buffer pH 6.0): 34 cP
Viscosity, cP [3]: 95 cP
Viscosity, cP [4]: 65 cP
Viscosity (cP) @ 25° C. (HGG 246 mg/mL, excipient 27.3 mg/mL (81 mM), 25 mM phosphate buffer pH 6.0): 91 cP
Viscosity (cP) @ 25° C. (HGG 248 mg/mL, excipient 10 mg/mL (30 mM), 25 mM phosphate buffer pH 6.0): 92 cP
Viscosity (cP) @ 25° C. (HGG 294 mg/mL, excipient 10 mg/mL (30 mM), 25 mM citrate buffer pH 6.0): 185 cP
Structure (SMILES): Cc1ncc(C[n+]2csc(CCO)c2C)c(N)n1 [Thiamine-HCl]

Viscosity (cP) @ 25° C. (HGG 161 mg/mL, excipient 10 mg/mL (41 mM), 25 mM phosphate buffer pH 6.0): 60 cP
Structure (SMILES): Cc1cn([C@H]2C[C@H](O)[C@@H](CO)O2)c(=O)[nH]c1=O [Thymidine]
